Source: PubChem BioAssay (NCI)
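Cells were grown in 96-well plates and exposed to each compound for 48 hours at five concentrations; endpoints were interpolated linearly between bracketing concentrations, or set to the highest concentration if not reached. TGI: total growth inhibition.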

Tests used:
Assay in all cases: NCI-60 cell line screen, 48 h
[1] = test system: 786-0 renal
[2] = test system: A498 renal
[3] = test system: A549 NSCLC
[4] = test system: ACHN renal
[5] = test system: BT-549 breast
[6] = test system: CAKI-1 renal
[7] = test system: CCRF-CEM leukemia
[8] = test system: COLO 205 colon
[9] = test system: DU-145 prostate
[10] = test system: EKVX NSCLC
[11] = test system: HCC-2998 colon
[12] = test system: HCT-116 colon
[13] = test system: HCT-15 colon
[14] = test system: HL-60(TB) leukemia
[15] = test system: HOP-62 NSCLC
[16] = test system: HOP-92 NSCLC
[17] = test system: HS 578T breast
[18] = test system: HT29 colon
[19] = test system: IGROV1 ovarian
[20] = test system: K-562 leukemia
[21] = test system: KM12 colon
[22] = test system: LOX IMVI melanoma
[23] = test system: M14 melanoma
[24] = test system: MALME-3M melanoma
[25] = test system: MCF7 breast
[26] = test system: MDA-MB-231 breast
[27] = test system: MDA-MB-435
[28] = test system: MDA-N
[29] = test system: MOLT-4 leukemia
[30] = test system: NCI-H226 lung
[31] = test system: NCI-H23 lung
[32] = test system: NCI-H460 lung
[33] = test system: NCI-H522 lung
[34] = test system: NCI/ADR-RES ovarian
[35] = test system: OVCAR-3 ovarian
[36] = test system: OVCAR-4 ovarian
[37] = test system: OVCAR-5 ovarian
[38] = test system: OVCAR-8 ovarian
[39] = test system: PC-3 prostate
[40] = test system: RPMI-8226 leukemia
[41] = test system: RXF 393 renal
[42] = test system: SF-268 CNS
[43] = test system: SF-295 CNS
[44] = test system: SF-539 CNS
[45] = test system: SK-MEL-2 melanoma
[46] = test system: SK-MEL-28 melanoma
[47] = test system: SK-MEL-5 melanoma
[48] = test system: SK-OV-3 ovarian
[49] = test system: SN12C renal
[50] = test system: SNB-19 CNS
[51] = test system: SR leukemia
[52] = test system: SW-620 colon
[53] = test system: T-47D breast
[54] = test system: TK-10 renal
[55] = test system: U251 CNS
[56] = test system: UACC-257 melanoma
[57] = test system: UACC-62 melanoma
[58] = test system: UO-31 renal
[59] = test system: SNB-75 CNS

For `N#Cc1c(N)nc2n[nH]c(N)c2c1-c1ccccc1`, the TGI [1] was 69.8 µM, the TGI [2] was 5.77 µM and the TGI [3] was > 65.5 µM. For the same compound, the TGI [4] was 28.9 µM, the TGI [5] was 40.2 µM and the TGI [6] was 19.4 µM. The TGI [7] was > 100 µM, the TGI [8] was 24.3 µM and the TGI [9] was 54.2 µM. For the same compound, the TGI [10] was 55 µM, the TGI [11] was > 57 µM and the TGI [12] was 46.1 µM. The TGI [13] was > 77.8 µM, the TGI [14] was 71.1 µM and the TGI [15] was 63.9 µM. It also gave a TGI [16] of 8.01 µM, a TGI [17] of 24.2 µM and a TGI [18] of 57.7 µM. The TGI [19] was 13.4 µM, the TGI [20] was > 100 µM and the TGI [21] was 79.5 µM. For the same compound, the TGI [22] was 19 µM, the TGI [23] was 37.5 µM and the TGI [24] was 22 µM. It also gave a TGI [25] of 24.7 µM, a TGI [26] of 38.7 µM and a TGI [27] of 36.1 µM. The TGI [28] was 33 µM, the TGI [29] was 32.4 µM and the TGI [30] was > 79 µM. For the same compound, the TGI [31] was 50.2 µM, the TGI [32] was > 53.2 µM and the TGI [33] was 18 µM. The TGI [34] was 48.5 µM, the TGI [35] was 20.5 µM and the TGI [36] was > 100 µM. For the same compound, the TGI [37] was > 100 µM, the TGI [38] was 41.8 µM and the TGI [39] was 35.5 µM. For the same compound, the TGI [40] was > 53.8 µM, the TGI [41] was 13.2 µM and the TGI [42] was 29.2 µM. The TGI [43] was 29.7 µM, the TGI [44] was 21.1 µM and the TGI [45] was 12.8 µM. It also gave a TGI [46] of 77.2 µM, a TGI [47] of 26.7 µM and a TGI [48] of 20.4 µM. For the same compound, the TGI [49] was 31.8 µM, the TGI [50] was > 58.8 µM and the TGI [51] was > 60.1 µM. The TGI [52] was > 100 µM, the TGI [53] was 3.9 µM and the TGI [54] was > 27.1 µM. The TGI [55] was 92.2 µM, the TGI [56] was > 83.6 µM and the TGI [57] was 8.02 µM. The TGI [58] was 32.3 µM.
In the case of `Cn1c(SCc2c[nH]c3ccccc23)nnc1-c1ccc(Cl)cc1Cl`, the TGI [1] is reported as 68.6 µM, the TGI [2] is reported as 86.3 µM and the TGI [3] is reported as 48.5 µM. The TGI [4] was 96.8 µM, the TGI [5] was 87.5 µM and the TGI [6] was > 100 µM. The TGI [7] was 45.4 µM, the TGI [8] was 27.4 µM and the TGI [9] was 78.5 µM. The TGI [10] was 49.6 µM, the TGI [11] was 26.1 µM and the TGI [12] was 93 µM. The TGI [13] was > 100 µM, the TGI [14] was 25.6 µM and the TGI [15] was 21.4 µM. For the same compound, the TGI [16] was 53 µM, the TGI [17] was > 100 µM and the TGI [18] was 35.5 µM. For the same compound, the TGI [19] was 67.2 µM, the TGI [20] was 24.9 µM and the TGI [21] was 25.2 µM. For the same compound, the TGI [22] was 20 µM, the TGI [23] was 38.1 µM and the TGI [24] was 45.8 µM. For the same compound, the TGI [25] was 84.9 µM, the TGI [26] was 66.3 µM and the TGI [27] was 12 µM. For the same compound, the TGI [28] was 78.9 µM, the TGI [29] was 27.5 µM and the TGI [31] was 69.9 µM. For the same compound, the TGI [32] was 26.3 µM, the TGI [33] was 45.9 µM and the TGI [34] was 27.3 µM. It also gave a TGI [35] of 35.1 µM, a TGI [36] of 34.2 µM and a TGI [37] of 86.7 µM. For the same compound, the TGI [38] was > 100 µM, the TGI [39] was 36.5 µM and the TGI [40] was 27.1 µM. For the same compound, the TGI [41] was 32.5 µM, the TGI [42] was > 100 µM and the TGI [43] was 27.2 µM. The TGI [44] was 17.7 µM, the TGI [45] was 36.2 µM and the TGI [46] was > 100 µM. The TGI [47] was 27.5 µM, the TGI [48] was 59.4 µM and the TGI [49] was 47.5 µM. It also gave a TGI [50] of 61.7 µM, a TGI [59] of 25.9 µM and a TGI [51] of 16.6 µM. For the same compound, the TGI [52] was > 100 µM, the TGI [53] was 43.2 µM and the TGI [54] was 47.2 µM. It also gave a TGI [55] of 38.1 µM, a TGI [56] of 56.1 µM and a TGI [57] of 39.3 µM. For the same compound, the TGI [58] was 82.9 µM.
